In patent US6488943B1, “Antimicrobial wipes which provide improved immediate germ reduction” (The Procter & Gamble Company, priority 1999, dated 2002):

System: Vibrio fischerio
Experiment: Microtox Response Test (bioluminescence of Microtox Acute Toxicity Reagent)
Type: cell-based
Conditions: pure anionic surfactant; EC50 for 50% decrease of bioluminescence, 5 minutes
Description: Reference: Microtox Manual: A Toxicity Testing Handbook, 1992 Volume I-IV; Microbics Corporation.
Equipment: Microtox M500 Toxicity Testing Unit; Microbics Corporation Connected to computer for data acquisition and analysis according to above reference.
1. Preparation of Sample Stock Solution (Standard Concentration: 1000 ppm)
The stock solution of the test anionic surfactant sample is prepared and used as a stock solution from which all other dilutions are made. The standard “starting concentration”, the highest concentration to be tested, is 500 ppm. […]
a) Turn on test unit and allow reagent well temperature to equilibrate at 5.5° C. and incubator block and read well temperature to equilibrate at 15° C. […]
c) Place the assay cuvette containing reagent which corresponds to the test blank into the read well and press SET. After the cuvette has resurfaced press READ and the value will be captured by the computer.
d) Similarly read the remaining 7 cuvettes containing reagent when prompted by the computer by pressing the READ button with the correct cuvette in the READ well.
e) After all 8 initial reading have been taken, transfer 500 μl of the diluted test substance into their corresponding cuvette containing the reagent. […]

Compound	Microtox Index [ppm]
CCCCCCCCCCCCOS(=O)(=O)O.N [ammonium lauryl sulfate]	1.0
ammonium laureth-3 sulfate	120
